The text below walks through data of patent publication US7018642B2 (The Procter & Gamble Company, priority 2001, dated 2006).

Type in all cases: cell-based
The test system of assay [1] is P. fluorescens strain ATCC 13525. Put plainly: Improved biofilm dispersion screen (already-formed biofilms, crystal violet). To be noted: Pseudomonas fluorescens, ATCC13525, 20 mM NaOH step, positive = dispersion, negative = enhancement of pre-existing biofilm, quadruplicate, read-out: average percentage reduction of biofilm relative to the two control values (dispersion). The essentials: (§1)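 Biofilms pre-grown 24 h without compound, then given fresh medium with compound at 390 μM for another 22–26 h. NaOH wash in PBS (0 mM S. epidermidis, 20 mM P. fluorescens, 30 mM P. aeruginosa; 30 min, room temperature), then crystal violet staining. Percent biofilm reduction calculated against t0 and DMSO t24 controls, quadruplicates; negative values mean enhancement.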

Assay [2] has as its system P. aeruginosa strain PAO1. Described as above. The following applies: Pseudomonas aeruginosa, 30 mM NaOH step, positive = dispersion, negative = enhancement of pre-existing biofilm, quadruplicate, read-out: average percentage reduction of biofilm relative to the two control values (dispersion). The essentials:
as §1

The subject of assay [3] is S. epidermidis strain ATCC 35984. The description is as above. To be noted: Staphylococcus epidermidis, ATCC35984, no NaOH, positive = dispersion, negative = enhancement of pre-existing biofilm, quadruplicate, read-out: average percentage reduction of biofilm relative to the two control values (dispersion). An outline of the steps:
as §1

The test system of assay [4] is P. fluorescens strain ATCC 13525. In words: Biofilm prevention screen (96-well microplate, crystal violet). To be noted: Pseudomonas fluorescens, positive = prevention, negative = enhancement of biofilm formation, quadruplicate, read-out: average percentage reduction of biofilm formed relative to DMSO controls; for inhibition at 32 µM: ATCC13525, 32 μM; for inhibition at 160 µM: ATCC13525, 160 μM; for inhibition at 390 µM: ATCC13525, 390 μM. The essentials:
(§2)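 Three strains in 96-well round-bottom plates, compound at 250–500 μM, 160 μM or 32 μM, 16–26 h at 200 rpm (30° C Pseudomonas, 37° C staphylococcus). Staining: CV 45 min at room temperature, ethanol extraction, A586. Reported as % biofilm reduction vs DMSO, n = 4.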

Assay [5] relates to P. aeruginosa strain PAO1. The description is as above. To be noted: Pseudomonas aeruginosa, positive = prevention, negative = enhancement of biofilm formation, quadruplicate, read-out: average percentage reduction of biofilm formed relative to DMSO controls. An outline of the steps:
as §2

Assay [6] concerns S. epidermidis strain ATCC 35984. Described as above. To be noted: Staphylococcus epidermidis, positive = prevention, negative = enhancement of biofilm formation, quadruplicate, read-out: average percentage reduction of biofilm formed relative to DMSO controls; for inhibition at 32 µM: ATCC35984, 32 μM; for inhibition at 160 µM: ATCC35984, 160 μM; for inhibition at 390 µM: ATCC35984, 390 μM. The essentials:
as §2

Consider `CCCCCCCCCCNC(=O)[C@H]1CCCN1C(=O)OC(C)(C)C` [Compound 158], for which the inhibition at 390 µM was -79% in assay [1]; -53% in assay [2]; 0% in assay [3]; -40% in assay [4]; -40% in assay [5]; 54% in assay [6]. The inhibition at 32 µM in assay [4] was 3%; in assay [5], 1%; in assay [6] it was -10%. The values for the inhibition at 160 µM in assay [4], in assay [5] and in assay [6] were -11%, -34% and 52%, respectively.

For the molecule `CCCCCCCCCCCCNC(=O)[C@H]1CCCN1C(=O)OC(C)(C)C` [Compound 159], the inhibition at 390 µM is -94% in assay [1]; -55% in assay [2]; 0% in assay [3]; -13% in assay [4]; -50% in assay [5]; -3% in assay [6]. The inhibition at 32 µM in assay [4] was -1%; in assay [5], -9%; in assay [6], -9%. Further, the inhibition at 160 µM is -3% in assay [4], -38% in assay [5] and -20% in assay [6].

`CCCCCCCCCCCCNC(=O)[C@@H]1CCCN1C(=O)OC(C)(C)C` [Compound 160]: the inhibition at 390 µM was -44% in assay [1]; -52% in assay [2]; 0% in assay [3]; -18% in assay [4]; -59% in assay [5]; 29% in assay [6]. Besides, the inhibition at 32 µM in assay [4] was -1%; in assay [5], -2%; in assay [6], -9%. The inhibition at 160 µM in assay [4] is 0%; in assay [5], -44%; in assay [6], 20%.

As to `CCCCNC(=O)[C@H]1CCCN1` [Compound 162], the inhibition at 390 µM was 0% in assay [1]; -23% in assay [2]; 0% in assay [3]; 11% in assay [4]; -9% in assay [5]; -47% in assay [6]. Also, the inhibition at 32 µM is 7% in assay [4], -9% in assay [5] and -4% in assay [6]. The inhibition at 160 µM was 1% in assay [4], -13% in assay [5] and -8% in assay [6].

For the molecule `CCCCCCNC(=O)[C@H]1CCCN1` [Compound 163], the inhibition at 390 µM in assay [1] was 12%; in assay [2], 4%; in assay [3] it was -5%; in assay [4], 22%; in assay [5] it was 46%; in assay [6], -10%. In addition, the inhibition at 32 µM in assay [4] is 5%; in assay [5] it was 1%; in assay [6] it was -3%. Further, the figures for the inhibition at 160 µM in assay [4], in assay [5] and in assay [6] were 6%, 22% and -5%, respectively.

Take `CCCCCCCCNC(=O)[C@H]1CCCN1` [Compound 164]: the inhibition at 390 µM in assay [1] was 47%; in assay [2], 38%; in assay [3], -3%; in assay [4], 54%; in assay [5] it was 12%; in assay [6], -35%. Further, the values for the inhibition at 32 µM in assay [4], in assay [5] and in assay [6] were 8%, 6% and -8%, respectively. Moreover, the inhibition at 160 µM is 7% in assay [4], 11% in assay [5] and -1% in assay [6].

With `CCCCNC(=O)[C@@H]1CCCN1` [Compound 165], the inhibition at 390 µM in assay [1] is 6%; in assay [2], 0%; in assay [3], -3%; in assay [4] it was 20%; in assay [5], 1%; in assay [6], -12%. The inhibition at 32 µM in assay [4] is 10%; in assay [5], 2%; in assay [6], -6%. For the same molecule, the inhibition at 160 µM in assay [4] is 4%; in assay [5], -16%; in assay [6], -15%.

`CCCCCCCCCCNC(=O)[C@H]1CCCN1` [Compound 166]: the inhibition at 390 µM in assay [1] was 0%; in assay [2], -2%; in assay [3] it was 70%; in assay [4], 98%; in assay [5] it was 96%; in assay [6] it was 101%. Further, the results for the inhibition at 32 µM in assay [4], in assay [5] and in assay [6] were 0%, 10% and 13%, respectively. Also, the inhibition at 160 µM came out at 57% in assay [4], 22% in assay [5] and 100% in assay [6].

For the molecule `CCCCCCCCCCCCNC(=O)[C@H]1CCCN1` [Compound 167], the inhibition at 390 µM was determined as 0% in assay [1]; 4% in assay [2]; 78% in assay [3]; 92% in assay [4]; 93% in assay [5]; 99% in assay [6]. In addition, the inhibition at 32 µM in assay [4] worked out at 38%; in assay [5], 4%; in assay [6], 40%. The figures for the inhibition at 160 µM in assay [4], in assay [5] and in assay [6] were 95%, 49% and 100%, respectively.

With `CC(C)(C)OC(=O)N1CCC[C@@H]1C(=O)NCCCCCCCCCCCCNC(=O)[C@H]1CCCN1C(=O)OC(C)(C)C` [Compound 225, N-(tert-Butoxycarbonyl)-D-proline 1,12-diaminododecane bisamide], the inhibition at 390 µM in assay [1] is -85%; in assay [2], -23%; in assay [3], 0%; in assay [4], -14%; in assay [5], -8%; in assay [6], -39%. Also, the inhibition at 32 µM was 14% in assay [4], 11% in assay [5] and -21% in assay [6]. Moreover, the figures for the inhibition at 160 µM in assay [4], in assay [5] and in assay [6] were 0%, 7% and -24%, respectively.

Consider `CCCCCCNC(=O)[C@@H]1CCN1C(=O)OC(C)(C)C` [Compound 283], for which the inhibition at 390 µM in assay [1] was 0%; in assay [2], -11%; in assay [3], -11%; in assay [4] it was 13%; in assay [5], 0%; in assay [6], -23%. The values for the inhibition at 32 µM in assay [4], in assay [5] and in assay [6] were 3%, -7% and -3%, respectively. In addition, the inhibition at 160 µM is -1% in assay [4], -10% in assay [5] and -10% in assay [6].

With `CCCCCCCCNC(=O)[C@@H]1CCN1C(=O)OC(C)(C)C` [Compound 284], the inhibition at 390 µM was -15% in assay [1]; -79% in assay [2]; 0% in assay [3]; -2% in assay [4]; -12% in assay [5]; 56% in assay [6]. Further, the results for the inhibition at 32 µM in assay [4], in assay [5] and in assay [6] were 4%, 2% and -4%, respectively. Further, the inhibition at 160 µM in assay [4] is 21%; in assay [5] it was -10%; in assay [6], -33%.
